The text below walks through data of PubChem BioAssay (NCI).

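Exposure lasted 48 hours, with cells grown in 96-well plates and compounds tested at five concentrations. GI50 is the concentration that inhibits growth by half. The concentration for full growth arrest is given as TGI.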

Among the test systems are COLO 205 colon; HCC-2998 colon; U251 CNS; HCT-116 colon; SN12C renal; NCI-H460 lung; 786-0 renal; HCT-15 colon; SK-MEL-28 melanoma; SF-268 CNS.
What all share (assay): growth of human tumour cells (NCI), 48 h

Take `CC(=O)OC(COc1ccc2c(c1)[n+]([O-])nc(N)[n+]2[O-])CN1CCCCC1` (stereo unspecified): the TGI was determined as 30.5 µM with COLO 205 colon; 22.5 µM in the experiment with HCC-2998 colon; 43 µM in the experiment on U251 CNS; 59.2 µM in the experiment with HCT-116 colon; 40.3 µM in the experiment with SN12C renal; 21.8 µM in the experiment on NCI-H460 lung. The TGI with 786-0 renal was 36.6 µM; in the experiment on HCT-15 colon it was 31.6 µM; in the experiment on SK-MEL-28 melanoma, more than 100 µM.

Regarding `O=C(Cc1cc(O)ccc1O)NO`, the GI50 was 18.6 µM with COLO 205 colon; more than 100 µM in the experiment on HCC-2998 colon; 32.7 µM in the experiment with U251 CNS; 18 µM in the experiment on HCT-116 colon; more than 100 µM in the experiment on SF-268 CNS; 18.2 µM with SN12C renal. In addition, the GI50 with NCI-H460 lung was 89.8 µM; in the experiment on 786-0 renal it was 18.9 µM; with HCT-15 colon it was 74.6 µM. The TGI with COLO 205 colon is 36.3 µM; in the experiment with HCC-2998 colon, more than 100 µM; in the experiment on U251 CNS, more than 100 µM; in the experiment with HCT-116 colon it was 32.4 µM; in the experiment on SF-268 CNS, more than 100 µM; in the experiment with SN12C renal it was 33.8 µM. The values for the TGI with NCI-H460 lung, in the experiment on 786-0 renal and in the experiment with HCT-15 colon were more than 100 µM, 34.5 µM and more than 100 µM, respectively.

Regarding `CC(=O)Oc1ccc2c(=O)c(C(C)=O)coc2c1`, the TGI with COLO 205 colon, in the experiment with U251 CNS, in the experiment with HCT-116 colon, with SF-268 CNS, in the experiment on NCI-H460 lung and in the experiment with 786-0 renal was more than 100 µM each time. Moreover, the TGI in the experiment on HCT-15 colon and in the experiment with SK-MEL-28 melanoma was more than 100 µM each time.

As to `O=C1NC(c2ccc3ccccc3c2)Nc2ccccc21` (stereo unspecified), the TGI in the experiment on COLO 205 colon, in the experiment with HCC-2998 colon, with U251 CNS, in the experiment with HCT-116 colon, with SF-268 CNS and in the experiment on NCI-H460 lung was more than 100 µM each time. The TGI in the experiment on 786-0 renal, in the experiment with HCT-15 colon and in the experiment on SK-MEL-28 melanoma was more than 100 µM each time.

For `COc1cc2c(Nc3ccc(-c4ccc(N)cc4)cc3)ncnc2c(OC)c1OC`, the GI50 in the experiment on COLO 205 colon is 2.6 µM; with U251 CNS, 7.93 µM; in the experiment with HCT-116 colon, 3.79 µM; in the experiment on SF-268 CNS it was 19.1 µM; in the experiment with SN12C renal, 11.2 µM; in the experiment with NCI-H460 lung, 2.89 µM. Besides, the GI50 in the experiment on 786-0 renal is 3.72 µM; in the experiment on HCT-15 colon, 0.607 µM; with SK-MEL-28 melanoma it was 11.9 µM. The TGI is 7.94 µM in the experiment with COLO 205 colon; more than 100 µM with U251 CNS; 55.3 µM in the experiment with HCT-116 colon; more than 100 µM in the experiment on SF-268 CNS; more than 100 µM in the experiment with SN12C renal; more than 66.4 µM in the experiment on NCI-H460 lung. Besides, the TGI is more than 100 µM in the experiment with 786-0 renal, more than 85.7 µM in the experiment on HCT-15 colon and more than 100 µM in the experiment with SK-MEL-28 melanoma.

For the compound `COC(=O)C1c2cc3c(c(O)c2CCC1(C)O)C(=O)c1c(O)cc2c(c1C3=O)OC1OC2(C)C(O)C(N(C)C)C1O` (stereo unspecified), the TGI in the experiment on COLO 205 colon was 1.73 µM; in the experiment with U251 CNS, 1.71 µM; with HCT-116 colon, 24.2 µM; with SF-268 CNS it was 11.1 µM; with SN12C renal, 3.84 µM; in the experiment on NCI-H460 lung it was 2.11 µM. For the same compound, the figures for the TGI in the experiment on 786-0 renal, with HCT-15 colon and in the experiment on SK-MEL-28 melanoma were 2.63 µM, 1.7 µM and 15.7 µM, respectively.

On to `OC1CC(O)O[C@H](c2ccccc2)C1` (stereo partly specified), for which the TGI with COLO 205 colon, with HCC-2998 colon, in the experiment with HCT-116 colon, in the experiment with SF-268 CNS, with SN12C renal and with NCI-H460 lung was more than 100 µM each time. The TGI in the experiment on 786-0 renal, in the experiment on HCT-15 colon and in the experiment with SK-MEL-28 melanoma was more than 100 µM each time.

Turning to `O=C(CCN1CCCCC1)c1csc2ccccc12`, the TGI in the experiment on COLO 205 colon, in the experiment with U251 CNS, in the experiment on HCT-116 colon, with SF-268 CNS, in the experiment on SN12C renal and in the experiment on NCI-H460 lung was more than 100 µM throughout. Besides, the TGI in the experiment with 786-0 renal, in the experiment with HCT-15 colon and in the experiment with SK-MEL-28 melanoma was more than 100 µM each time.

`O=C(O)CN1C(=O)OC(c2ccccc2)C1=O` (stereo unspecified): the TGI in the experiment with COLO 205 colon, in the experiment on U251 CNS, with HCT-116 colon, in the experiment with SF-268 CNS, with SN12C renal and in the experiment on NCI-H460 lung was more than 100 µM in each case. Also, the TGI with 786-0 renal, in the experiment with HCT-15 colon and in the experiment with SK-MEL-28 melanoma was more than 100 µM each time.

Consider `N#CC1=C(N)N=C(N2CCOCC2)C(C#N)C12Nc1ccccc1S2` (stereo unspecified), for which the GI50 in the experiment on COLO 205 colon is 12.7 µM; in the experiment with U251 CNS it was 27.8 µM; in the experiment on HCT-116 colon it was 35.4 µM; in the experiment with SF-268 CNS, 8.05 µM; with SN12C renal it was 27.5 µM; with NCI-H460 lung, 16.6 µM. Also, the GI50 in the experiment with 786-0 renal was 29.6 µM; in the experiment with HCT-15 colon, 29.1 µM. Also, the TGI in the experiment on COLO 205 colon was 52.4 µM; in the experiment on U251 CNS, more than 100 µM; in the experiment with HCT-116 colon it was more than 100 µM; in the experiment on SF-268 CNS, 27.5 µM; in the experiment on SN12C renal, 82.9 µM; in the experiment with NCI-H460 lung, 37.1 µM. Moreover, the values for the TGI with 786-0 renal and in the experiment with HCT-15 colon were 76.2 µM and more than 100 µM, respectively.

`O=C(c1ccccc1)n1cc(/C=C/[N+](=O)[O-])c2ccccc21`: the TGI in the experiment on COLO 205 colon was 59.2 µM; in the experiment with U251 CNS, 33.3 µM; with HCT-116 colon, 32 µM; with SF-268 CNS, 52.3 µM; with SN12C renal, more than 100 µM; in the experiment on NCI-H460 lung, 43.3 µM. Also, the TGI was found to be 39 µM in the experiment on 786-0 renal, 39.8 µM in the experiment with HCT-15 colon and 33.6 µM with SK-MEL-28 melanoma.

With `CC(=O)OCc1nnn2c1C(OC(C)=O)CC2` (stereo unspecified), the TGI in the experiment on COLO 205 colon, in the experiment with HCC-2998 colon, in the experiment with U251 CNS, with HCT-116 colon, in the experiment on SN12C renal and in the experiment with NCI-H460 lung was more than 100 µM in each case. Besides, the TGI in the experiment with 786-0 renal, in the experiment on HCT-15 colon and in the experiment on SK-MEL-28 melanoma was more than 100 µM each time.

Turning to `C[C@@H](NC1CCCC[C@@H]1O)c1ccccc1` (stereo partly specified), the TGI with COLO 205 colon, in the experiment on HCC-2998 colon, in the experiment with U251 CNS, in the experiment on HCT-116 colon, with SN12C renal and in the experiment with NCI-H460 lung was more than 100 µM in each case. The TGI with 786-0 renal, in the experiment with HCT-15 colon and in the experiment on SK-MEL-28 melanoma was more than 100 µM throughout.
